Laboratory results from patent US11623919B2, “Heterocyclic P2X7 antagonists” (AXXAM S.P.A., priority 2017, dated 2023).

Legend:
Experiment in all cases: Screen Quest Fluo-8 No Wash Calcium Assay (Bz-ATP evoked Ca2+ influx, FLIPR)
Type in all cases: cell-based
[1] = biological target: T1, P2X7 receptor (Mus musculus, UniProt Q9Z1M0); details: mP2X7; HEK-293 cells stably transfected with P2X7 receptor, Bz-ATP at EC80, Fluo-8 NW; potency ranges A-D
T1 construct: mP2X7 (IC50; nM); other: mP2X7; HEK-293 cells stably transfected with P2X7 receptor, Bz-ATP at EC80, Fluo-8 NW; potency
T1 sequence (Q9Z1M0 1-595): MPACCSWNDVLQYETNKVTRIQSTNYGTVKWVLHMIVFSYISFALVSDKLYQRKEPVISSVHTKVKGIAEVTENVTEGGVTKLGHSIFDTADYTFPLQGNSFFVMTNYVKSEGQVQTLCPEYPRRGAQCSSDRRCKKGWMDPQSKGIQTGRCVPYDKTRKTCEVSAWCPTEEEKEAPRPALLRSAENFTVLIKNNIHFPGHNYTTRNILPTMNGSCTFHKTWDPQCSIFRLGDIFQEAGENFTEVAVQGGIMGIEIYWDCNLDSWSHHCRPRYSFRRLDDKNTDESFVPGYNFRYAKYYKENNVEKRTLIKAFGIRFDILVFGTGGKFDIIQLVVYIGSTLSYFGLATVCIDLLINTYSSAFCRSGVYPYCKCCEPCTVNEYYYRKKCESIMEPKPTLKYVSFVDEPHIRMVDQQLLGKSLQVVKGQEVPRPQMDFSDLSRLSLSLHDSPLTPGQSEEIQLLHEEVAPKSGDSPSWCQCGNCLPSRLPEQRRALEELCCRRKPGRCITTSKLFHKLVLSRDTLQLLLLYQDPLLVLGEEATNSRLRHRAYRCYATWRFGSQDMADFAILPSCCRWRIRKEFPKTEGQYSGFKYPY
Experimental: (§1) Extracellular binding of Bz-ATP to P2X7 receptor opens the channel and allows Ca2+ influx into the cells. […] Once inside the cell, the lipophilic blocking groups of Fluo-8 are cleaved by non-specific cell esterases, resulting in a negatively-charged fluorescent dye that stays inside cells. Its fluorescence increases upon binding to calcium.
(§2) HEK-293 cells stably transfected with P2X7 receptor were seeded overnight in growth medium at 10,000 to 20,000 cell/well in 384-well plate. 24 hours later, the medium was removed and the cells were pre-loaded at RT for 1 hour with 20 μL/w of Fluo-8 NW. Then 10 μL/w of tests compounds and reference antagonist A438079 at 3×-concentration were injected with the […] and the kinetic response over a period of five minutes was monitored. A second injection of 15 μL/w of 3× reference activator (Bz-ATP at EC80) was performed with the […] and the signal of the emitted fluorescence was recorded for additional three minutes. All the experiment was carried out in a Low Divalent Cation Assay Buffer (0.3 mM Ca^2+ and 0 mM Mg^2+). The effect of the test compounds was measured as percent inhibition vs the reference antagonist and IC50 values were calculated accordingly.

[2] = biological target: T2, P2X7 receptor (Rattus norvegicus, UniProt Q64663); details: rP2X7; HEK-293 cells stably transfected with P2X7 receptor, Bz-ATP at EC80, Fluo-8 NW; potency ranges A-D
T2 construct: rP2X7 (IC50; nM); other: rP2X7; HEK-293 cells stably transfected with P2X7 receptor, Bz-ATP at EC80, Fluo-8 NW; potency
T2 sequence (Q64663 1-595): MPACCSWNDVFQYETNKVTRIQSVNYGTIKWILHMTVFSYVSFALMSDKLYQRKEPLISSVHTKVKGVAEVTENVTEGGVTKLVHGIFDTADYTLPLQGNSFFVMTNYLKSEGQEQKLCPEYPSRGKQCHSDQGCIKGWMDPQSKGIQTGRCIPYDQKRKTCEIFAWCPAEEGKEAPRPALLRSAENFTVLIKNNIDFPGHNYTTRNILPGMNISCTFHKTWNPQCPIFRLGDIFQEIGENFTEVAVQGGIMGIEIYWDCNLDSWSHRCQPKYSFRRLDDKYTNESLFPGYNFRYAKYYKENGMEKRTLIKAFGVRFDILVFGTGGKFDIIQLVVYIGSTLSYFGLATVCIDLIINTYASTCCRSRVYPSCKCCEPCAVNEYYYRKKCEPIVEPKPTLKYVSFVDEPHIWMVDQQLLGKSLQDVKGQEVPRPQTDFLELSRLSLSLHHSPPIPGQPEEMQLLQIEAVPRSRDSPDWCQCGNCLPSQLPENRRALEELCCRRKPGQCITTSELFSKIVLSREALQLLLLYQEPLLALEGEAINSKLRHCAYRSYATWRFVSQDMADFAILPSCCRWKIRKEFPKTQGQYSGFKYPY
Experimental: as §1, §2

[3] = biological target: T3, P2X7 receptor (Homo sapiens, UniProt Q99572); design: hP2X7 (IC50; nM); other: hP2X7; HEK-293 cells stably transfected with P2X7 receptor, Bz-ATP at EC80, Fluo-8 NW; potency; details: hP2X7; HEK-293 cells stably transfected with P2X7 receptor, Bz-ATP at EC80, Fluo-8 NW; potency ranges A-D
T3 sequence (Q99572 1-595): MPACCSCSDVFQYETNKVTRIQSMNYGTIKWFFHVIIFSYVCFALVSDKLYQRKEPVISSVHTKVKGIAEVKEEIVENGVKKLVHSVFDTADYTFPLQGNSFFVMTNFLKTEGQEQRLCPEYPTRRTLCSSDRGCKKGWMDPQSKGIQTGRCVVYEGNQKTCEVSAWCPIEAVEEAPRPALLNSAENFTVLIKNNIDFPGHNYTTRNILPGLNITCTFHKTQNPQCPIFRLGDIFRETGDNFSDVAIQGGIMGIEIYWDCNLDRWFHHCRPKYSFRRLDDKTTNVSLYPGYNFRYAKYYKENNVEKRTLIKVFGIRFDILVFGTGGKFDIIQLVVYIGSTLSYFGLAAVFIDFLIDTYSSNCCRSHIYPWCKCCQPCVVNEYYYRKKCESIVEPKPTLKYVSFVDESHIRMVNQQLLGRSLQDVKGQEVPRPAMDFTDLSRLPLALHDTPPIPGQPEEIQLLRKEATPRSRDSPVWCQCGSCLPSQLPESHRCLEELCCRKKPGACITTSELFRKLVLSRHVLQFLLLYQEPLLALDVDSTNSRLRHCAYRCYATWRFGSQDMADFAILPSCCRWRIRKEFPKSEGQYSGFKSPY
Experimental: as §1, §2

Compound	IC50 [1] [nM]	IC50 [2] [nM]	IC50 [3] [nM]
O=c1onc(Cc2c(F)cccc2Cl)n1CC1CCC(F)(F)C1 (single isomer, unassigned) [Example 148, 3-(2-chloro-6-fluorobenzyl)-4-[(3,3-difluorocyclopentyl)methyl]-1,2,4-oxadiazol-5(4H)-one]	200 to 1000	< 200	< 200
COc1ccc(Cn2c(Cc3ccc(F)cc3)noc2=O)c(OC)c1 [Example 2, 4-[(2,4-dimethoxyphenyl)methyl]-3-[(4-fluorophenyl)methyl]-4,5-dihydro-1,2,4-oxadiazol-5-one]	> 10000	> 10000	1000 to 10000
COc1ccc(Cn2c(Cc3ccc(F)cc3)noc2=O)cc1 [Example 3, 3-[(4-fluorophenyl)methyl]-4-[(4-methoxyphenyl)methyl]-4,5-dihydro-1,2,4-oxadiazol-5-one]	> 10000	> 10000	> 10000
COc1cc(Cn2c(Cc3ccc(F)cc3)noc2=O)cc(OC)c1 [Example 4, 4-[(3,5-dimethoxyphenyl)methyl]-3-[(4-fluorophenyl)methyl]-4,5-dihydro-1,2,4-oxadiazol-5-one]	> 10000	> 10000	> 10000
O=c1onc(Cc2ccc(F)cc2)n1Cc1cc(F)ccc1Br [Example 5, 4-[(2-bromo-5-fluorophenyl)methyl]-3-[(4-fluorophenyl)methyl]-4,5-dihydro-1,2,4-oxadiazol-5-one]	> 10000	> 10000	1000 to 10000
O=c1onc(Cc2ccccc2)n1Cc1c(F)cccc1Cl [Example 6, 3-benzyl-4-[(2-chloro-6-fluorophenyl)methyl]-4,5-dihydro-1,2,4-oxadiazol-5-one]	1000 to 10000	1000 to 10000	1000 to 10000
COc1cccc(Cc2noc(=O)n2Cc2c(F)cccc2Cl)c1 [Example 7, 4-[(2-chloro-6-fluorophenyl)methyl]-3-[(3-methoxyphenyl)methyl]-4,5-dihydro-1,2,4-oxadiazol-5-one]	1000 to 10000	> 10000	1000 to 10000
Cc1ncsc1Cn1c(Cc2ccc(F)cc2)noc1=O [Example 8, 3-[(4-fluorophenyl)methyl]-4-[(4-methyl-1,3-thiazol-5-yl)methyl]-4,5-dihydro-1,2,4-oxadiazol-5-one]	> 10000	> 10000	1000 to 10000
O=c1onc(Cc2ccc(F)cc2)n1Cc1ccc(Cl)cc1Cl [Example 9, 4-[(2,4-dichlorophenyl)methyl]-3-[(4-fluorophenyl)methyl]-4,5-dihydro-1,2,4-oxadiazol-5-one]	> 10000	1000 to 10000	200 to 1000
CC(c1ccccc1)n1c(Cc2ccc(F)cc2)noc1=O (stereo not drawn) [Example 10, 3-[(4-fluorophenyl)methyl]-4-(1-phenylethyl)-4,5-dihydro-1,2,4-oxadiazol-5-one]	> 10000	1000 to 10000	200 to 1000
CC(c1ccc(F)cc1)n1c(Cc2ccc(F)cc2)noc1=O (stereo not drawn) [Example 11, 4-[1-(4-fluorophenyl)ethyl]-3-[(4-fluorophenyl)methyl]-4,5-dihydro-1,2,4-oxadiazol-5-one]	1000 to 10000	1000 to 10000	1000 to 10000
O=c1onc(Cc2ccc(F)cc2)n1CC1CCCCC1 [Example 12, 4-(cyclohexylmethyl)-3-[(4-fluorophenyl)methyl]-4,5-dihydro-1,2,4-oxadiazol-5-one]	200 to 1000	200 to 1000	1000 to 10000
O=c1onc(Cc2cccc(Cl)c2Cl)n1Cc1c(F)cccc1Cl [Example 13, 4-[(2-chloro-6-fluorophenyl)methyl]-3-[(2,3-dichlorophenyl)methyl]-4,5-dihydro-1,2,4-oxadiazol-5-one]	1000 to 10000	1000 to 10000	1000 to 10000
O=c1onc(Cc2ccc(F)cc2Cl)n1Cc1c(F)cccc1Cl [Example 14, 3-[(2-chloro-4-fluorophenyl)methyl]-4-[(2-chloro-6-fluorophenyl)methyl]-4,5-dihydro-1,2,4-oxadiazol-5-one]	1000 to 10000	1000 to 10000	200 to 1000
O=c1onc(Cc2ccc(F)cc2F)n1Cc1c(F)cccc1Cl [Example 15, 4-[(2-chloro-6-fluorophenyl)methyl]-3-[(2,4-difluorophenyl)methyl]-4,5-dihydro-1,2,4-oxadiazol-5-one]	1000 to 10000	1000 to 10000	1000 to 10000
O=c1onc(Cc2cccc(C(F)(F)F)c2Cl)n1Cc1c(F)cccc1Cl [Example 16, 3-{[2-chloro-3-(trifluoromethyl)phenyl]methyl}-4-[(2-chloro-6-fluorophenyl)methyl]-4,5-dihydro-1,2,4-oxadiazol-5-one]	> 10000	1000 to 10000	1000 to 10000
O=c1onc(Cc2ccc(Cl)cc2Cl)n1Cc1c(F)cccc1Cl [Example 17, 4-[(2-chloro-6-fluorophenyl)methyl]-3-[(2,4-dichlorophenyl)methyl]-4,5-dihydro-1,2,4-oxadiazol-5-one]	1000 to 10000	1000 to 10000	1000 to 10000
O=c1onc(Cc2c(F)cccc2Cl)n1Cc1c(F)cccc1Cl [Example 18, bis[(2-chloro-6-fluorophenyl)methyl]-4,5-dihydro-1,2,4-oxadiazol-5-one]	1000 to 10000	1000 to 10000	1000 to 10000
O=c1onc(Cc2ccccc2F)n1Cc1c(F)cccc1Cl [Example 19, 4-[(2-chloro-6-fluorophenyl)methyl]-3-[(2-fluorophenyl)methyl]-4,5-dihydro-1,2,4-oxadiazol-5-one]	> 10000	1000 to 10000	1000 to 10000
O=c1onc(Cc2ccccc2Cl)n1Cc1c(F)cccc1Cl [Example 20, 4-[(2-chloro-6-fluorophenyl)methyl]-3-[(2-chlorophenyl)methyl]-4,5-dihydro-1,2,4-oxadiazol-5-one]	1000 to 10000	1000 to 10000	1000 to 10000
